Measurements from ChEMBL document CHEMBL5131401, “Structural Basis for Developing Multitarget Compounds Acting on Cysteinyl Leukotriene Receptor 1 and G-Protein-Coupled Bile Acid Receptor 1” (J Med Chem, 2021).
Values after ≈ are worked out from the molar mass of the structure shown.

Key:
[1] = Aqueous solubility of compound in pH 7.4 PBS buffer measured after 24 hrs by LC-MS/MS analysis; type: physicochemical
[2] = Lipophilicity, logD of the compound in octanol and phosphate buffer at pH 7.4 incubated for 2 hrs under shaking condition by LC-MS/MS analysis; type: physicochemical
[3] = Metabolic stability in human liver microsomes assessed as half life at 1 uM measured up to 60 mins in presence of NADPH by LC-MS/MS analysis; type: ADME, Microsome; conditions: for half-life at 1 µM: liver microsomes
[4] = Metabolic stability in human liver S9 fraction assessed as half life at 1 uM measured after 2 hrs in presence of NADPH by LC-MS/MS analysis; type: ADME, subcellular

solubility at 24 h [1] [µM]	logD at 2 h [2]	half-life at 1 µM [3] [min]	half-life at 1 µM [4] [min]	t1/2 ([3]; microsomes, 1 h, 1 µM) [h]	Structure (SMILES)
> 200	0.12	–	–	–	O=C(O)c1cccc(OCc2ccc3ccccc3n2)c1
3.5 (≈ 1.12 µg/mL)	1.01	22.3	–	–	CCC(C)COc1cccc(OCc2ccc3ccccc3n2)c1 (stereo not drawn)
141 (≈ 37.4 µg/mL)	2.8	48	119	–	OCc1cccc(OCc2ccc3ccccc3n2)c1
39.3 (≈ 13.2 µg/mL)	3.1	–	57	37	CCCCCC(O)c1cccc(OCc2ccc3ccccc3n2)c1 (stereo not drawn) [REV-5901]
